Measured values taken from PMC9101642 (Molecules, 2022).
Read-outs that look alike come from different tables or passages of the source. Marks after values point to notes of the source that are not given here.

Experiments:
ERα [1] = target: T1, ERα (Homo sapiens, UniProt P03372); assay: Fluorescence polarization competition assay: antagonistic potency and relative binding affinity; conditions: for logRBA ERα: log of % relative binding affinity, estradiol = 100%
T1 sequence (P03372 1-595): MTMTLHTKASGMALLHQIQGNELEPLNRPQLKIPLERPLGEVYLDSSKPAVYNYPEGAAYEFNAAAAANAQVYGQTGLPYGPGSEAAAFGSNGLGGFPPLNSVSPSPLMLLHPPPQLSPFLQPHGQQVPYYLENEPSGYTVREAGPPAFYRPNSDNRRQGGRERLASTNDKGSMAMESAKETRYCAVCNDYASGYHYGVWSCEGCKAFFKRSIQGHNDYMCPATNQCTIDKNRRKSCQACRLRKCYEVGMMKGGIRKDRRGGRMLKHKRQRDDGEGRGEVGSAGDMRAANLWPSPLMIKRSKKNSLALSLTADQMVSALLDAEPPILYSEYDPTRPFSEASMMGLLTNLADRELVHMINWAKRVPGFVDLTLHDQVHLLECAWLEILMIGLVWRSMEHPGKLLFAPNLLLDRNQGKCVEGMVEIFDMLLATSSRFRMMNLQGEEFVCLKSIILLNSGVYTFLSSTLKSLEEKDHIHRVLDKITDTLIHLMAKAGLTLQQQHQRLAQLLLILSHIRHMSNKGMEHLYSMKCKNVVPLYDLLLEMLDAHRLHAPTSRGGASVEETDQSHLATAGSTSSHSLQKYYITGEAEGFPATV

ERβ = ERβ (Homo sapiens, UniProt Q92731); assay: as above; conditions: for logRBA ERβ: log of % relative binding affinity, estradiol = 100%
MCF-7 cell lines = assay: MTT antiproliferative assay; type: cell-based, human; conditions: for IC50: Homo sapiens, MCF7, growth inhibition, 48 h, read-out: MCF-7 (IC50 nM); for SI: selectivity index [IC50(MDA-MB-231)]/[IC50(MCF-7)]
MDA-MB-231 cell lines = assay: MTT antiproliferative assay; type: cell-based, human; conditions: Homo sapiens, MDA-MB-231; growth inhibition, 48 h; read-out: MDA-MB-231 (IC50 nM)
[2] = test system: Ishikawa endometrial adenocarcinoma cells; assay: Antiproliferative assay; type: cell-based; conditions: Homo sapiens, growth inhibition
Text: As SERMs profile is often associated with the stimulation of endometrial cell proliferation and an increase in the incidence of endometrial cancer (EC), the herein compounds were therefore evaluated against Ishikawa endometrial adenocarcinoma cells (Table 8, Supplementary Material Figures […]). […] However, future experimental elaboration, currently beyond the authors' experimental facilities, is required to confirm compounds' promising profiles in terms of no EC induction.

ERα [3] = target: T1, ERα; assay: ERα down-regulation immunofluorescence assay in MCF-7; type: cell-based
[4] = test system: progesterone receptor (PR); assay: ERα functional antagonism cell assay (PR as biomarker) in MCF-7; type: cell-based; conditions: Homo sapiens, MCF7; progesterone receptor as biomarker for ERα antagonism in MCF-7
MCF-7 cells = assay: Cell cycle distribution by flow cytometry; type: cell-based, human; conditions: 24 h
[5] = MTT antiproliferative assay (neutral control); conditions: human
[6] = calculated antagonistic (inhibitory) constant, read-out: Ka ERα
[7] = concentration that antagonizes 50% of ERα signaling activity, read-out: ERα (IC50 nM)
[8] = calculated antagonistic (inhibitory) constant, read-out: Ka ERβ
[9] = concentration that antagonizes 50% of ERβ signaling activity, read-out: ERβ (IC50 nM)
[10] = ERα downregulation measured in MCF-7, read-out: MCF-7 DR (IC50 nM)
[11] = 1 nM as lower concentration (3DPQ-5, 3DPQ-6, 3DPQ-8)
[12] = calculated antagonistic (inhibitory) constant

Sequence of ERβ (Q92731 whole entry): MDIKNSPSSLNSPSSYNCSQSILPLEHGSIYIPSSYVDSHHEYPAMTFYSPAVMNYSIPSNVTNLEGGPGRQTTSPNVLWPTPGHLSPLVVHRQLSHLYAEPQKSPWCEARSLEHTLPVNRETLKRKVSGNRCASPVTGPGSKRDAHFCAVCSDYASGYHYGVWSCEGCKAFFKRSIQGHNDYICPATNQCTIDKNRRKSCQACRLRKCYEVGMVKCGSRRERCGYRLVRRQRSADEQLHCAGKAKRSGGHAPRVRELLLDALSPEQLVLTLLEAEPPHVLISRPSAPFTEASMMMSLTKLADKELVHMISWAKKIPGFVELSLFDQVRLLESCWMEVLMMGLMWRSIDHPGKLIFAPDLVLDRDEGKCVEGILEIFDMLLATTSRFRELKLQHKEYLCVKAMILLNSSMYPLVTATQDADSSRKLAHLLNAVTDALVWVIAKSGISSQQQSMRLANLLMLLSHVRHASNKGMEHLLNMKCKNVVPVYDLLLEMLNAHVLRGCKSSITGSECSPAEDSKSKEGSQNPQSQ

Row | SMILES | Ki (ERα [1]; [6]) [nM] | IC50 (ERα [1]; [7]) [nM] | logRBA ERα (ERα [1]) | ERα potency, fold more potent than 4-OHT (ERα [1]; ratio of IC50 values) [fold] | Ki (ERβ; [8]) [nM] | IC50 (ERβ; [9]) [nM] | logRBA ERβ (ERβ) | IC50 (MCF-7 cell lines) [nM] | SI (MCF-7 cell lines) | IC50 (MDA-MB-231 cell lines) [nM] | IC50 [2] [nM] | IC50 (ERα [3]; [10]) [nM] | IC50 [4] [nM] | Cell Cycle (%) G0/G1 (MCF-7 cells; [11]) | Cell Cycle (%) G2/M (MCF-7 cells; [11]) | Cell Cycle (%) S (MCF-7 cells; [11]) | Cell Cycle (%) G0/G1 (MCF-7 cells; 10 nM (3DPQ-5, 3DPQ-6, 3DPQ-8)) | Cell Cycle (%) G2/M (MCF-7 cells; 10 nM (3DPQ-5, 3DPQ-6, 3DPQ-8)) | Cell Cycle (%) S (MCF-7 cells; 10 nM (3DPQ-5, 3DPQ-6, 3DPQ-8)) | IC50 at 48 h [5] [nM] | further results
1 | CC(=O)c1cc(C(=O)OC2C=CC(=O)OC(O)CCCC=CC3CC(O)CC32)ccc1OCCN1C(=O)CCC1=O (centres unmarked) [Compound 3DPQ-5, -decahydro-1H-cyclopenta[f][1]oxacyclotridecin-1-yl 3-acetyl-4-(2-(2,5-dioxopyrrolidin-1-yl)ethoxy)benzoate] | 0.18 | 0.81 ± 0.43 | 2.04 ^‡ | 1.38 | 41.8 | 74.41 ± 0.46 | 0.08 ^†,‡,§ | 1.02 ± 0.64 | 51.61 ^‡,§ | 52.6 ± 0.69 | 1.42 ± 0.32 | > 100 | > 100 | 71.78 ± 0.67 *^,†,‡,§ % | 19.01 ± 3.55 *^,†,‡,§ % | 9.21 ± 1.95 *^,†,‡,§ % | 74.24 ± 2.15 *^,†,‡,§ % | 15.85 ± 4.43 *^,†,‡,§ % | 9.92 ± 0.76 *^,†,‡,§ % | > 100 | –
2 | CC(=O)c1cc(C(=O)O[C@@H]2/C=C/C(=O)O[C@@H](O)CCC/C=C/[C@@H]3C[C@H](O)C[C@H]32)ccc1OCCN1Cc2cccnc2C1 [Compound 3DPQ-6, (1R,2E,6R,10E,11aS,13S,14aR)-6,13-dihydroxy-4-oxo-4,6,7,8,9,11a,12,13,14,14a-decahydro-1H-cyclopenta[f][1]oxacyclotridecin-1-yl 4-(2-(5H-pyrrolo[3,4-b]pyridin-6(7H)-yl)ethoxy)-3-acetylbenzoate] | – | – | 2.03 ^‡ | 1.33 | – | – | 0.01 ^†,‡,§ | 1.14 ± 0.49 | 45.89 ^‡,§ | 52.31 ± 0.46 | 1.46 ± 0.43 | – | > 100 | 70.52 ± 1.53 *^,†,‡,§ % | 16.21 ± 3.25 *^,†,‡,§ % | 13.27 ± 2.64 *^,†,‡,§ % | 71.98 ± 2.44 *^,†,‡,§ % | 14.05 ± 2.43 *^,†,‡,§ % | 13.98 ± 1.33 *^,†,‡,§ % | > 100 | IC50 (ERα [1]): 0.84 ± 0.11 nM; Ki (ERα [1]): 0.19 nM; IC50 (ERβ): 86.56 ± 0.33 nM; Ki (ERβ): 48.6 nM; IC50 (ERα [3]): > 100 nM
3 | CC(=O)c1cc(C(=O)O[C@@H]2/C=C/C(=O)O[C@@H](O)CCC/C=C/[C@@H]3C[C@H](O)C[C@H]32)ccc1OCCN1C=Cc2ccccc2C1 [Compound 3DPQ-7, (1R,2E,6R,10E,11aS,13S,14aR)-6,13-dihydroxy-4-oxo-4,6,7,8,9,11a,12,13,14,14a-decahydro-1H-cyclopenta[f][1]oxacyclotridecin-1-yl 3-acetyl-4-(2-(isoquinolin-2(1H)-yl)ethoxy)benzoate] | – | 0.64 ± 0.13 | 2.14 ^†,‡ | – | – | 72.34 ± 0.17 | 0.09 ^†,‡,§ | 0.78 ± 0.52 | 66.61 ^‡,§ | 52 ± 0.68 | 1.74 ± 0.43 | > 100 | > 100 | – | – | – | – | – | – | > 100 | Ka ERα (nM) (ERα [1]; [12]): 0.14 ^†,‡ nM; ERα potency, fold higher than Ral (ERα [1]; ratio of IC50 values): 1.16 fold; Ka ERβ (nM) (ERβ; [12]): 40.64 ^†,‡,§ nM; MCF-7 antiproliferative potency, fold higher than Ral (MCF-7 cell lines; ratio of IC50 values): 1.14 fold; Cell Cycle (%) G0/G1 (MCF-7 cells; 0.1 nM): 73.25 ± 2.54 *^,†,‡,§ %; Cell Cycle (%) G2/M (MCF-7 cells; 0.1 nM): 12.69 ± 2.64 *^,†,‡,§ %; Cell Cycle (%) S (MCF-7 cells; 0.1 nM): 14.06 ± 1.58 *^,†,‡,§ %; Cell Cycle (%) G0/G1 (MCF-7 cells; 1 nM): 75.71 ± 1.43 *^,†,‡,§ %; Cell Cycle (%) G2/M (MCF-7 cells; 1 nM): 9.53 ± 3.54 *^,†,‡,§ %; Cell Cycle (%) S (MCF-7 cells; 1 nM): 14.77 ± 1.46 *^,†,‡,§ %
4 | CC(=O)c1cc(C(=O)O[C@@H]2/C=C/C(=O)O[C@@H](O)CCC/C=C/[C@@H]3C[C@H](O)C[C@H]32)ccc1OCCN1CCCC2CCCNC21 (stereo partly drawn) [Compound 3DPQ-8, (1R,2E,6R,10E,11aS,13S,14aR)-6,13-dihydroxy-4-oxo-4,6,7,8,9,11a,12,13,14,14a-decahydro-1H-cyclopenta[f][1]oxacyclotridecin-1-yl 3-acetyl-4-(2-(octahydro-1,8-naphthyridin-1(2H)-yl)ethoxy)benzoate] | 0.18 | 0.81 ± 0.14 | 2.04 ^‡ | 1.38 | 40.6 | 72.3 ± 0.78 | 0.09 ^†,‡,§ | 1.06 ± 0.45 | 40.15 ^‡,§ | 42.56 ± 0.35 | 1.98 ± 0.32 | > 100 | > 100 | 72.39 ± 1.43 *^,†,‡,§ % | 15.11 ± 2.56 *^,†,‡,§ % | 12.50 ± 1.22 *^,†,‡,§ % | 74.85 ± 2.54 *^,†,‡,§ % | 11.95 ± 2.45 *^,†,‡,§ % | 13.21 ± 2.15 *^,†,‡,§ % | > 100 | –
5 | CC(=O)c1cc(C(=O)O[C@@H]2/C=C/C(=O)O[C@@H](O)CCC/C=C/[C@@H]3C[C@H](O)C[C@H]32)ccc1OCCN1CCCCC1 [Compound 3DPQ-10, (1R,2E,6R,10E,11aS,13S,14aR)-6,13-dihydroxy-4-oxo-4,6,7,8,9,11a,12,13,14,14a-decahydro-1H-cyclopenta[f][1]oxacyclotridecin-1-yl 3-acetyl-4-(2-(piperidin-1-yl)ethoxy)benzoate] | – | – | 2.06 ^‡ | 1.45 | – | – | 0.05 ^†,‡,§ | 0.97 ± 0.34 | 42.27 ^‡,§ | 41.97 ± 0.32 | 1.55 ± 0.42 | – | > 100 | – | – | – | – | – | – | > 100 | IC50 (ERα [1]): 0.77 ± 0.14 nM; Ki (ERα [1]): 0.17 nM; IC50 (ERβ): 79.54 ± 0.76 nM; Ki (ERβ): 44.7 nM; IC50 (ERα [3]): > 100 nM; Cell Cycle (%) G0/G1 (MCF-7 cells; 0.1 nM): 71.96 ± 1.43 *^,†,‡,§ %; Cell Cycle (%) G2/M (MCF-7 cells; 0.1 nM): 16.08 ± 1.56 *^,†,‡,§ %; Cell Cycle (%) S (MCF-7 cells; 0.1 nM): 11.96 ± 2.41 *^,†,‡,§ %; Cell Cycle (%) G0/G1 (MCF-7 cells; 1 nM): 74.42 ± 2.12 *^,†,‡,§ %; Cell Cycle (%) G2/M (MCF-7 cells; 1 nM): 12.92 ± 4.32 *^,†,‡,§ %; Cell Cycle (%) S (MCF-7 cells; 1 nM): 12.67 ± 2.46 *^,†,‡,§ %
